Data from patent publication US9127027B2, “Epoxyeicosatrienoic acid analogs and methods of making and using the same” (The Medical College of Wisconsin, Inc., priority 2011, dated 2015).
pEC50, pIC50: −log10 of the molar value. Where two headings read alike, the source gives them in different places.

Experiments:
[1] = test system: Wistar-Kyoto (WKY) rats administered cisplatin; assay: Cisplatin-induced nephrotoxicity in rats pretreated with EET analogs; format: in vivo, rat; conditions: for BUN: day 5 after cisplatin 7 mg/kg i.p., vehicle 241±51; for urinary NAG / plasma creatinine (PCr) / KIM-1 urinary excretion: day 5 after cisplatin; for urinary NAG: vehicle 3.0±0.6; for plasma creatinine (PCr): vehicle 3.1±0.2; for KIM-1 urinary excretion: vehicle 296±94; for cisplatin-induced proteinuria: vehicle 53±5; for reductions in renal mRNA expressions of inflammatory markers (TNF-α, IL-6, IL-1β) / reduction in elevated renal expressions of GRP78 and caspase 12 mRNAs: cisplatin-administered rats; for reduction in elevated renal expressions of GRP78 and caspase 12 mRNAs: vs vehicle treatment; for decrease in kidney expression of NOX1 and gp91phox mRNAs / reduction in urinary excretion of NAG and KIM-1 / reduction of cisplatin-induced proteinuria / reductions in elevated serum creatinine and BUN: vs vehicle-treated cisplatin rats
Text: Experiments were approved and carried out according to the guidelines of the Institutional Animal Care and Use Committee, Medical College of Wisconsin, Milwaukee, USA. Male Wistar-Kyoto (WKY) rats weighing 180-200 g (Charles River, Mass., USA). All animals were kept in a temperature-controlled environment with a 12-h light/dark cycle and were allowed free access to food and water at all times. An acclimatization period of 6 days was allowed for the rats before experimentation. The rats were assigned into four groups. Group 1 (WKY, n=5-7): Rats received drinking water ad libitum for seven days and on day 7 DMSO (Sigma Aldrich, St. Louis, Mo., USA) was administered (300-500 μl i.p). […] Group 2 (CP+Vehicle, n=5-7): Rats were pretreated with vehicle (0.05% ethanol and 0.1% PEG-400 v/v) in drinking water for seven days and then on day 7 CP was administered (7 mg/kg i.p.) followed by another five days treatment with vehicle. Group 3 (CP+EET-A, n=5-7): These rats are pretreated with the EET analog EET-A (10 mg/kg/day p.o.) for seven days in drinking water and then on day 7 administered CP as a single injection (7 mg/kg i.p.) followed by another five days treatment with EET-A. Group 4 (CP+EET-B, n=5-7): Rats of this group are pretreated with another EET analog EET-B (10 mg/kg/day) for 7 days in drinking water and then on day 7 CP was administered as a single injection (7 mg/kg i.p.) followed by another five days treatment with EET-B. Rats of groups 2, 3 and 4 had free access to vehicle, EET-A and -B in drinking water, respectively. One day before the rats were sacrificed, urine of each rat was collected over a 24-h period, and the volume was measured. Five days after CP or DMSO administration, rats were anesthetized for blood sample collection followed by euthanasia and tissue collection. Urine and plasma samples were kept frozen at −80° C. until analyzed. The kidneys were removed, washed with physiological saline and stored at −80° C. until used for RT-PCR analysis, thiobarbituric acid reactive substance (TBARS) measurement and caspase 3 activity assay. A part of the kidney also preserved in 10% buffered formalin for histological examination.
The levels of blood urea nitrogen (BUN) (BioAssay Systems, Hayward, Calif., USA) and serum creatinine (Cayman Chemical Company, Ann Arbor, Mich., USA) were measured spectrophotometrically using commercial kits. Urinary content of creatinine and protein were measured using commercial kits (Cayman Chemical Company, Ann Arbor, Mich., USA), and the activity of urinary N-acetyl-b-glucosaminidase (NAG) in the urine was measured by a kit from Diazyme (Diazyme Laboratories, Poway, Calif., USA). While urine content of kidney injury molecule-1 (KIM-1) was measured using ELISA (R&D Systems, Inc. Minneapolis, Minn., USA).
Malondialdehyde (MDA) is a thiobarbituric acid reactive substance (TBARS) that is formed as an end-product of lipid peroxidation and serves as an important index of oxidative stress. To determine the kidney MDA level, the rat kidney was homogenized with buffer containing 1.5% potassium chloride to obtain a 1:10 (w/v) whole kidney homogenate. Using a commercially available kit (Cayman Chemical Company, Ann Arbor, Mich., USA), MDA was measured spectrophotometrically after reaction with thiobarbituric acid. […]
Real-Time analysis was carried out to assess the expression of oxidative (gp91phox, NOX1, SOD1, SOD2, SOD3), inflammatory (TNF-α, IL-6, IL-1β), apoptotic (Bax, Bak, Bcl-2) and endoplasmic reticulum stress (GRP78, caspase 12) related genes in the kidney. Total RNA was isolated from kidney homogenate using TRIzol LS reagents (Invitrogen Life Technologies, Carlsbad, Calif., USA) according to the manufacturer's instructions. The isolated RNA was treated with RNase-free DNase (Invitrogen, Carlsbad, Calif., USA) to remove traces of genomic DNA contamination. […]

[2] = test system: Spontaneously Hypertensive Rats (SHR); assay: Telemetry blood pressure and heart rate in spontaneously hypertensive rats; format: in vivo, rat; conditions: for blood pressure after two weeks of treatment: 2 mg/d i.p. osmotic pump, vehicle 141±3.0; for heart rate: 2 mg/d i.p., vehicle 331±17.0
Text: (§1) Telemetry Blood Pressure Measurement. To accurately detect changes in blood pressure and heart rate, telemetry transmitters (Data Sciences Inc., St. Paul, Minn.) were implanted in rats one week prior to the experimental period according to manufacturer's specifications while under pentobarbital anesthesia. In brief, an incision was made to expose the femoral artery that was occluded to allow insertion of the transmitter catheter. The catheter was secured in place with tissue glue and the transmitter body was sutured in place and the incision line was closed. Rats were allowed to recover from surgery and were returned to individual housing. A baseline arterial pressure was recorded for prior to the experimental period. Mean arterial pressure was continuously recorded throughout the experimental period.
Telemetry transmitters were implanted into male SHR as described. After the surgical recovery period, baseline mean arterial pressure was recorded. In this series of experiments, EET analogs were administered by osmotic pump (2 mg/d, i.p.) and blood pressure was continuously monitored.

bovine coronary artery = assay: Vasorelaxant activity in bovine coronary artery rings precontracted with U-46619; format: cell-based; conditions: for Vascular Relax. % (10 μM): 100% relaxation = basal pre-U-46619 tension; for pEC50: Bos taurus
Experimental: Vasorelaxant activity was measured in bovine coronary artery. Bovine hearts were obtained and the left anterior descending coronary artery was dissected and cleaned of connective tissue. Vessels of 1 mm diameter were cut into rings of 3 mm width as previously described (3, 27, 39). […] The vessels were suspended from a pair of stainless steel hooks in a 6-ml water-jacketed organ chamber. […] One hook was anchored to a steel rod and the other hook to a force transducer (model FT-03C; Grass Instruments, West Warwick, R.I.). Tension of the vessel was measured by an ETH-400 bridge amplifier, and the data were acquired with a MacLab 8e analog-to-digital converter and MacLab software version 3.5.6 (AD Instruments, Milford, Mass.) and stored on a Macintosh computer for subsequent data analysis.
Basal tension was set at the length-tension maximum of 3.5 g and equilibrated for 1.5 h. KCl (40 mM) was added to the chamber until reproducible maximal contractions were maintained. […] Cumulative additions of compounds were added to the chamber. Between concentration-response curves, the chambers were rinsed with fresh Krebs buffer, 40 mM KCl was administered to determine the maximum contraction, and the vessels were rinsed. Consecutive concentration-response curves were performed with 14,15-EET followed by a concentration-response curve to a compound. The experiment was always repeated with the order of the agonists reversed. […] The relaxation was plotted versus compound concentration and the EC50 determined utilizing statistical software.

Human recombinant sEH = Human recombinant sEH (Homo sapiens (Human), UniProt P34913); assay: Soluble epoxide hydrolase inhibition (PHOME fluorescent substrate); format: biochemical; conditions: for IC50: Table 1 head prints μM (Table 2 prints nM for same numbers), read-out: sEHi IC50; for pIC50: Table 2, read-out: SEHi activity IC50
Experimental: Compounds were tested for their ability to inhibit recombinant soluble epoxide hydrolase (sEH) protein. The assay utilizes (3-Phhenyl-oxiranyl)-acetic acid cyano-(6-methoxy-naphthalen-2-yl)-methyl ester (PHOME), a sensitive substrate for sEH that can be used to monitor the activity of both human and murine enzymes. […] Human recombinant sEH was incubated with substrate and compounds ranging in concentration from 0.1 to 1000 nM.

[3] = test system: angiotensin II induced hypertensive rats; assay: Angiotensin II hypertension: telemetry blood pressure, heart rate, sodium and protein excretion; format: in vivo, rat; conditions: Ang II hypertension; for blood pressure at end of two-week treatment: 2 mg/d i.p., vehicle 150±3.2; for heart rate: vehicle 396±25.0
Text: as §1
Telemetry transmitters were implanted into male Sprague-Dawley rats (225-275 g) as described. After recording basal blood pressure, osmotic pumps were implanted (s.c.) to deliver angiotensin at a dose of 60 ng/min. EET analogs were administered by an osmotic pump (2 mg/d, i.p.) and blood pressure was continuously monitored.
Animals were placed in a metabolic cage and urine was collected in a conical tube. Samples were stored at −80° C. until assayed. Urinary protein excretion was assessed as an index for renal injury. Protein was determined by the Bradford colorimetric method and creatinine was determined by the picric acid colorimetric method.

[4] = Table 2, read-out: Vascular relaxation EC50
[5] = bovine coronary artery, read-out: Vascular Relax. EC50

Human recombinant sEH, sequence (P34913 whole entry): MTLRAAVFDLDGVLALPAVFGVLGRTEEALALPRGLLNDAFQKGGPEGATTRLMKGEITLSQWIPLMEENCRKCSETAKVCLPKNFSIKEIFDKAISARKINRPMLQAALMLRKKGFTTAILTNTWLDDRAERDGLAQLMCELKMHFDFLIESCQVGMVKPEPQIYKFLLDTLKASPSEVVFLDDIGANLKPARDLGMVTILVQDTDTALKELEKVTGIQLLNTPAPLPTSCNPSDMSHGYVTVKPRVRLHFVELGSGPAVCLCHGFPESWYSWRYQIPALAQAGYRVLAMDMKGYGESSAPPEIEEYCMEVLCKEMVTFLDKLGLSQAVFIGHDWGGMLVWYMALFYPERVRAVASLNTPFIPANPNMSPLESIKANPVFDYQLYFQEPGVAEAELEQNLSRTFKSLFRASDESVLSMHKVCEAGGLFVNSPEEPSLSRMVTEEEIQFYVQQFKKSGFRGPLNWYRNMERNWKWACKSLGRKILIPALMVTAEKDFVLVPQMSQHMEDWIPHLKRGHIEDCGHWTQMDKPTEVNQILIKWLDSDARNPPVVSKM

CCCCCCC(=O)N(CCCCCOc1cccc2sc(NC(=O)C(C)(C)C)nc12)C(C)C [EET-B, N-Isopropyl-N-(5-(2-pivalamidobenzo[d]thiazol-4-yloxy)pentyl)heptanamide]
BUN ([1]; 10 mg/kg/d p.o.): 120 ± 33 mg/dL | urinary NAG ([1]; 10 mg/kg/d p.o.): 0.6±0.2 U/d | plasma creatinine (PCr) ([1]; 10 mg/kg/d p.o.): 1.4 ± 0.2 mg/dL | KIM-1 urinary excretion ([1]; 10 mg/kg/d p.o.): 57 ± 13 ng/day | cisplatin-induced proteinuria ([1]; 10 mg/kg/d p.o.): 32 ± 3 mg/day | reductions in renal mRNA expressions of inflammatory markers (TNF-α, IL-6, IL-1β) [1]: 40-60% | reduction in elevated renal expressions of GRP78 and caspase 12 mRNAs [1]: 2-4 fold | decrease in kidney expression of NOX1 and gp91phox mRNAs [1]: 2-3 folds | reduction in urinary excretion of NAG and KIM-1 [1]: 30-50% | reduction of cisplatin-induced proteinuria [1]: ≥ 40% | reductions in elevated serum creatinine and BUN [1]: 30-50%

CCCCCNC(=O)NCCCC/C=C\CCCCCCC(=O)NC(CC(=O)[O-])C(=O)[O-].[Na+].[Na+] [EET-A, Sodium (S)-2-(13-(3-pentylureido)tridec-8(Z)-enamido)succinate]
kidney TBARS formation ([1]; 10 mg/kg/d p.o., after cisplatin, vehicle 16±2): 7 ± 1 µmol/g | BUN ([1]; 10 mg/kg/d p.o.): 108 ± 30 mg/dL | urinary NAG ([1]; 10 mg/kg/d p.o.): 0.5±0.1 U/d | plasma creatinine (PCr) ([1]; 10 mg/kg/d p.o.): 2.0 ± 0.2 mg/dL | KIM-1 urinary excretion ([1]; 10 mg/kg/d p.o.): 85 ± 29 ng/day | cisplatin-induced proteinuria ([1]; 10 mg/kg/d p.o.): 33 ± 8 mg/day | reductions in renal mRNA expressions of inflammatory markers (TNF-α, IL-6, IL-1β) [1]: 40-60% | reduction in elevated renal expressions of GRP78 and caspase 12 mRNAs [1]: 2-4 fold | decrease in kidney expression of NOX1 and gp91phox mRNAs [1]: 2-3 folds | reduction in urinary excretion of NAG and KIM-1 [1]: 30-50% | reduction of cisplatin-induced proteinuria [1]: ≥ 40% | reductions in elevated serum creatinine and BUN [1]: 30-50%

CCCCCCC(=O)N(CCCC/C=C\CCCCCCC1=NOS(=O)N1)C(C)C (stereo not drawn) [Compound 26]
blood pressure after two weeks of treatment [2]: 150±5.0 mmHg | heart rate [2]: 344±23.0 BPM | Vascular Relax. % (10 μM) (bovine coronary artery): 109% | Vascular relaxation % relaxation (10 μM) (bovine coronary artery; Table 2): 109% | pEC50 (bovine coronary artery; [4]): 6.49 | pEC50 (bovine coronary artery; [5]): 6.49 | IC50 (Human recombinant sEH): > 0.5 µM | pIC50 (Human recombinant sEH): < 6.30

CCCCCNC(=O)NCCCC/C=C\CCCCCCc1nnn[nH]1 [Compound 20]
blood pressure after two weeks of treatment [2]: 137±1.0 mmHg | Vascular Relax. % (10 μM) (bovine coronary artery): 119% | Vascular relaxation % relaxation (10 μM) (bovine coronary artery; Table 2): 119% | pEC50 (bovine coronary artery; [4]): 6.74 | pEC50 (bovine coronary artery; [5]): 6.74 | IC50 (Human recombinant sEH): 0.011 µM | pIC50 (Human recombinant sEH): 7.96

CCCCCCC(=O)N(CCCCCOc1cccc2sc(NC(C)=O)nc12)C(C)C [Compound 30, N-(5-(2-Acetamidobenzo[d]thiazol-4-yloxy)pentyl)-N-isopropylheptanamide]
blood pressure at end of two-week treatment [3]: 107±2.0 mmHg | sodium excretion (natriuresis) ([3]; two weeks, vehicle 1.9±0.7): 2.7 ± 0.3 mmol/day | heart rate ([3]; two weeks): 385±16.0 BPM | blood pressure after two weeks of treatment [2]: 129±2.0 mmHg | heart rate [2]: 318±24.0 BPM | decrease in blood pressure compared to vehicle ([2]; two weeks treatment): 12 mmHg | Vascular Relax. % (10 μM) (bovine coronary artery): 96% | Vascular relaxation % relaxation (10 μM) (bovine coronary artery; Table 2): 96%

CCCCCNC(=O)NCCCC/C=C\CCCCCCC(=O)N[C@@H](CC(=O)O)C(=O)O (stereo in doubt) [Compound 7, (S)-2-(13-(3-n-Pentylureido)tridec-8(Z)-enamido)succinic acid]
blood pressure at end of two-week treatment [3]: 135±5.0 mmHg | heart rate ([3]; two weeks): 410±25.0 BPM | blood pressure after two weeks of treatment [2]: 131±2.0 mmHg | heart rate [2]: 316±23.0 BPM | Vascular Relax. % (10 μM) (bovine coronary artery): 91% | Vascular relaxation % relaxation (10 μM) (bovine coronary artery; Table 2): 91% | pEC50 (bovine coronary artery; [4]): 5.80 | pEC50 (bovine coronary artery; [5]): 5.80
